Tests used:
[1] = Binding in the assay medium; assay type: in vitro ADME
Text: (§1) These early experiments also allowed us to use the PK Tool to predict the dose to use in the mouse efficacy models. As part of the prediction we need to recognise that the measured in vitro potency will be different from that in whole blood. […] They also display high protein binding in plasma, assay media and microsomal stability assays. […] Measurement of binding of LSHTM-3520 in the assay medium gave a free fraction, Fu of 0.0014. An experiment was run using LSHTM-3520 to determine whether the potency shift on varying the plasma protein level in the in vitro assay accords with prediction.

[2] = tested on: S. mansoni worms; experiment: In vitro potency assay with varied FBS level; assay type: cell-based; settings: Schistosoma mansoni
Text: as §1

[3] = rat, in vivo
[4] = in vivo; settings: rat
[5] = tested on: panel of 38 in vitro toxicity targets (receptors, channels, transporters); experiment: Broad selectivity panel (Cerep), radioligand receptor binding assays; settings: 1uM
Description: Selectivity was assessed at Cerep (Celle l’ Evescault, France), as described in the Cerep catalog, against a panel of in vitro radioligand receptor binding assays with 38 different receptors, channels, and transporters selected as targets to avoid for safety reasons (beta 1, beta 2, NMDA, MAO-A, 5-HT1B, CCK1 (CCKA), BZD (central), delta (DOP), A2A, CB1, CB2, D1, D2S, ETA, H1, H2, M1, M2, M3, 5-HT1A, 5-HT2A, 5-HT2B, 5-HT3, GR, AR, V1a, kappa (KOP), mu (MOP), alpha 1A, alpha 2A, Ca2+ channel, Potassium Channel, Kv channel, Na+ channel, N neuronal alpha 4 beta 2, norepinephrine transporter, dopamine transporter, 5-HT transporter). The specific ligand binding to the receptors is defined as the difference between the total binding, and the nonspecific binding determined in the presence of an excess of unlabelled ligand.

## CC(C)c1nc2cnc(-c3ccc(F)c(C(F)(F)F)c3)cn2c1-c1c(F)cc(O)cc1F [LSHTM-3520]
[1]; bovine, assay medium of the in vitro potency assay, read-out: free fraction, Fu
  fraction unbound: 0.0014
[1]; bovine, in vitro potency assay medium with Foetal Bovine Serum, in vitro assay medium
  recovery: 69.3%
[1]; in vitro assay medium
  Assay medium %binding: 99.86%
[2]; 3% FBS
  EC50: 8 nM
[2]; 10% FBS
  EC50: 24.4 nM
[2]; 30% FBS
  EC50: 75 nM

## Fc1ccc(-c2cn3c(-c4ccc5[nH]ncc5c4F)c(C(F)(F)F)nc3cn2)cc1C(F)(F)F [LSHTM-3642, 3-(4-fluoro-1H-indazol-5-yl)-6-(4-fluoro-3-(trifluoromethyl)phenyl)-2-(trifluoromethyl)imidazo[1,2-a]pyrazine]
[3]; iv, 1 mg/kg
  Clobs: 3.33 mL/min/kg
[3]; po, 10 mg/kg, 24 h
  Plasma conc @ 24 h after oral dose: 357 ng/mL
[4]; iv, 1 mg/kg
  AUC(0-inf): 5000 ng·h/mL
  Vd: 8.8 L/kg
[4]; po, 10 mg/kg
  bioavailability: 67%

## Fc1ccc(-c2cn3c(-c4ccc5[nH]ncc5c4F)c(C(F)(F)F)nc3cn2)cc1C(F)(F)C(F)(F)F [LSHTM-3645]
[5]
  activity against panel of 38 in vitro toxicity targets: no reproduceable activity

Source: publication PMC8321398, “The discovery of a novel series of compounds with single-dose efficacy against juvenile and adult Schistosoma species” (PLoS Neglected Tropical Diseases, 2021)
